# Values joined by “and” are separate entries in the source; they are usually repeats but may differ in a detail not shown here. Equal values may be shown once. Inconclusive results and toxic doses are left out.
# Test system: L1210 leukemia ip in BDF1 mice, survival T/C
# Test: NCI In Vivo Anticancer Drug Screen. Data for tumor model L1210 Leukemia (intraperitoneal) in B6D2F1 (BDF1) mice
# Settings: endpoint: mean survival time, higher = longer survival
# Summary of the method: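 Antitumor effect is assessed in tumor-bearing animals. Survival in the compound arm is compared with a vehicle-dosed control arm and expressed as their quotient.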
# [1] = dose: 100.0 mg/kg/injection, schedule: Q01DX001 (ip), vehicle: saline
# [2] = dose: 200.0 mg/kg/injection, schedule: Q01DX001 (ip), vehicle: saline
# [3] = dose: 400.0 mg/kg/injection, schedule: Q01DX001 (ip), vehicle: saline
# [4] = dose: 25.0 mg/kg/injection, schedule: Q01DX009 (ip), vehicle: saline
# [5] = dose: 100.0 mg/kg/injection, schedule: Q01DX001 (ip), vehicle: carboxymethylcellulose (CMC)
# [6] = dose: 200.0 mg/kg/injection, schedule: Q01DX001 (ip), vehicle: carboxymethylcellulose (CMC)
# [7] = dose: 400.0 mg/kg/injection, schedule: Q01DX001 (ip), vehicle: carboxymethylcellulose (CMC)
# [8] = dose: 100.0 mg/kg/injection, schedule: Q04DX002 (ip), vehicle: saline with Tween-80
# [9] = dose: 200.0 mg/kg/injection, schedule: Q04DX002 (ip), vehicle: saline with Tween-80
structure (smiles),measurement,setting,value
CCc1c(Cl)nc(N)nc1Nc1ccc(C)c(C)c1,T/C,"dose: 100.0 mg/kg/injection, schedule: Q01DX Z (ip), vehicle: methylcellulose (MC)",91 % of control
same,T/C,"dose: 200.0 mg/kg/injection, schedule: Q01DX Z (ip), vehicle: methylcellulose (MC)",93 % of control
COC(=O)C1=CCC=CC1,T/C,"dose: 100.0 mg/kg/injection, schedule: Q04DX003 (ip), vehicle: saline with Tween-80",102 % of control
same,T/C,"dose: 200.0 mg/kg/injection, schedule: Q04DX003 (ip), vehicle: saline with Tween-80",96 % of control
same,T/C,"dose: 400.0 mg/kg/injection, schedule: Q04DX003 (ip), vehicle: saline with Tween-80",93 % of control
O=C(O)c1cc(N=C2C=CC(=C(c3ccccc3)c3ccc(Nc4ccc(Cl)c(C(=O)O)c4)cc3)C=C2)ccc1Cl,T/C,"dose: 100.0 mg/kg/injection, schedule: Q01DX001 (ip), vehicle: other",97 % of control
same,T/C,"dose: 100.0 mg/kg/injection, schedule: Q01DX009 (ip), vehicle: Klucel (hydroxypropylcellulose) (HPC)",105 % of control
same,T/C,"dose: 200.0 mg/kg/injection, schedule: Q01DX001 (ip), vehicle: other",100 % of control
same,T/C,"dose: 200.0 mg/kg/injection, schedule: Q01DX009 (ip), vehicle: Klucel (hydroxypropylcellulose) (HPC)",97 % of control
same,T/C,"dose: 400.0 mg/kg/injection, schedule: Q01DX001 (ip), vehicle: other",103 % of control
COC1C(COC(C)=O)OC(n2cnc3c(=O)[nH]cnc32)C1OC(C)=O (stereo not drawn),T/C,[1],112 % of control
same,T/C,[2],108 % of control
same,T/C,[3],103 % of control
O=C(OCC1OC(n2cnc3c(=S)nc[nH]c32)C(OC(=O)c2ccccc2)C1OC(=O)c1ccccc1)c1ccccc1 (stereo not drawn),T/C,[4],118 % of control
same,T/C,"dose: 25.0 mg/kg/injection, schedule: Q01DX Z (ip), vehicle: saline",109 % of control
same,T/C,"dose: 39.0 mg/kg/injection, schedule: Q01DX Z (ip), vehicle: carboxymethylcellulose (CMC)",124 % of control
same,T/C,"dose: 50.0 mg/kg/injection, schedule: Q01DX Z (ip), vehicle: saline",117 % of control
same,T/C,"dose: 88.0 mg/kg/injection, schedule: Q01DX Z (ip), vehicle: carboxymethylcellulose (CMC)",118 % of control
same,T/C,"dose: 100.0 mg/kg/injection, schedule: Q01DX009 (ip), vehicle: saline",168 % of control
same,T/C,"dose: 110.0 mg/kg/injection, schedule: Q01DX009 (ip), vehicle: saline",123 % of control
same,T/C,"dose: 220.0 mg/kg/injection, schedule: Q01DX009 (ip), vehicle: saline",150 % of control
same,T/C,"dose: 222.0 mg/kg/injection, schedule: Q01DX Z (ip), vehicle: saline",95 % of control
same,T/C,"dose: 300.0 mg/kg/injection, schedule: Q01DX Z (ip), vehicle: carboxymethylcellulose (CMC)",150 % of control and 168 % of control
same,T/C,"dose: 300.0 mg/kg/injection, schedule: Q01DX Z (ip), vehicle: methylcellulose (MC)",112 % of control
same,T/C,"dose: 450.0 mg/kg/injection, schedule: Q01DX Z (ip), vehicle: carboxymethylcellulose (CMC)",171 % of control
same,T/C,"dose: 450.0 mg/kg/injection, schedule: Q01DX Z (ip), vehicle: methylcellulose (MC)",97 % of control
same,T/C,"dose: 600.0 mg/kg/injection, schedule: Q01DX001 (ip), vehicle: saline",120 % of control
same,T/C,"dose: 675.0 mg/kg/injection, schedule: Q01DX Z (ip), vehicle: carboxymethylcellulose (CMC)",100 % of control and 109 % of control
same,T/C,"dose: 1007.0 mg/kg/injection, schedule: Q01DX Z (ip), vehicle: carboxymethylcellulose (CMC)",93 % of control
same,T/C,"dose: 1510.0 mg/kg/injection, schedule: Q01DX Z (ip), vehicle: carboxymethylcellulose (CMC)",90 % of control
CC(C)(C)C(=O)OCN1CCOCC1,T/C,"dose: 75.0 mg/kg/injection, schedule: Q01DX001 (ip), vehicle: saline",106 % of control
same,T/C,"dose: 150.0 mg/kg/injection, schedule: Q01DX001 (ip), vehicle: saline",103 % of control
same,T/C,"dose: 300.0 mg/kg/injection, schedule: Q01DX001 (ip), vehicle: saline",108 % of control
COC(=O)c1ccc[n+](C)c1,T/C,"dose: 100.0 mg/kg/injection, schedule: Q04DX002 (ip), vehicle: saline",104 % of control
same,T/C,"dose: 200.0 mg/kg/injection, schedule: Q04DX002 (ip), vehicle: saline",101 % of control
CNC(=O)O/N=C(/C)c1ccc(Cl)cc1,T/C,[5],93 % of control
same,T/C,[6],101 % of control
same,T/C,[7],101 % of control
NC1CCSCC1,T/C,[1],104 % of control
same,T/C,[2],96 % of control
same,T/C,[3],96 % of control
O=C1/C(=C\c2cccnc2)CCCc2ccccc21,T/C,"dose: 100.0 mg/kg/injection, schedule: Q04DX003 (ip), vehicle: carboxymethylcellulose (CMC)",100 % of control
same,T/C,"dose: 200.0 mg/kg/injection, schedule: Q04DX003 (ip), vehicle: carboxymethylcellulose (CMC)",98 % of control
same,T/C,"dose: 400.0 mg/kg/injection, schedule: Q04DX003 (ip), vehicle: carboxymethylcellulose (CMC)",98 % of control
OCc1cc(Cl)ccc1O,T/C,"dose: 100.0 mg/kg/injection, schedule: Q01DX009 (ip), vehicle: other",91 % of control
same,T/C,"dose: 100.0 mg/kg/injection, schedule: Q04DX003 (ip), vehicle: other",103 % of control
same,T/C,"dose: 200.0 mg/kg/injection, schedule: Q01DX009 (ip), vehicle: other",120 % of control
same,T/C,"dose: 200.0 mg/kg/injection, schedule: Q04DX003 (ip), vehicle: other",95 % of control
same,T/C,"dose: 400.0 mg/kg/injection, schedule: Q04DX003 (ip), vehicle: other",93 % of control
COc1ccc(-n2c(O)c(N=Nc3ccccc3C)c(=O)n(-c3ccccc3)c2=S)cc1,T/C,"dose: 37.5 mg/kg/injection, schedule: Q01DX001 (ip), vehicle: Klucel (hydroxypropylcellulose) (HPC)",103 % of control
same,T/C,"dose: 75.0 mg/kg/injection, schedule: Q01DX001 (ip), vehicle: Klucel (hydroxypropylcellulose) (HPC)",97 % of control
same,T/C,"dose: 150.0 mg/kg/injection, schedule: Q01DX001 (ip), vehicle: Klucel (hydroxypropylcellulose) (HPC)",94 % of control
COc1ccc(OC)c2ncccc12,T/C,[1],104 % of control
COc1ccc(C(=O)N/N=C/C(CC(O)CO)=N/NC(=O)c2ccc(OC)cc2)cc1 (stereo not drawn),T/C,"dose: 100.0 mg/kg/injection, schedule: Q04DX003 (ip), vehicle: Klucel (hydroxypropylcellulose) (HPC)",95 % of control
same,T/C,"dose: 200.0 mg/kg/injection, schedule: Q04DX003 (ip), vehicle: Klucel (hydroxypropylcellulose) (HPC)",92 % of control
same,T/C,"dose: 400.0 mg/kg/injection, schedule: Q04DX003 (ip), vehicle: Klucel (hydroxypropylcellulose) (HPC)",96 % of control
CC(C)(SC(c1ccccc1)(c1ccccc1)c1ccccc1)C(N)C(=O)O (stereo not drawn),T/C,"dose: 6.25 mg/kg/injection, schedule: Q01DX009 (ip), vehicle: saline",103 % of control
same,T/C,"dose: 12.5 mg/kg/injection, schedule: Q01DX009 (ip), vehicle: saline",102 % of control
same,T/C,[4],108 % of control
CC[CH2][Sn]([Br])([CH2]CC(=O)OC)[CH2]CC(=O)OC,T/C,[8],93 % of control
same,T/C,[9],96 % of control
CC(=O)Nc1nc(C)c(CCCOc2ccc([N+](=O)[O-])cc2)c(Cl)n1,T/C,"dose: 100.0 mg/kg/injection, schedule: Q01DX001 (ip), vehicle: Klucel (hydroxypropylcellulose) (HPC)",100 % of control
same,T/C,"dose: 200.0 mg/kg/injection, schedule: Q01DX001 (ip), vehicle: Klucel (hydroxypropylcellulose) (HPC)",97 % of control
same,T/C,"dose: 400.0 mg/kg/injection, schedule: Q01DX001 (ip), vehicle: Klucel (hydroxypropylcellulose) (HPC)",97 % of control
N#CCC(=O)NCc1ccco1,T/C,"dose: 50.0 mg/kg/injection, schedule: Q01DX009 (ip), vehicle: saline with Tween-80",106 % of control
same,T/C,"dose: 100.0 mg/kg/injection, schedule: Q01DX009 (ip), vehicle: saline with Tween-80",103 % of control
same,T/C,[8],104 % of control
same,T/C,[9],114 % of control
CN(C)c1ccc2c(c1)C(=P(c1ccccc1)(c1ccccc1)c1ccccc1)c1ccccc1-2,T/C,"dose: 63.0 mg/kg/injection, schedule: Q01DX015 (ip), vehicle: carboxymethylcellulose (CMC)",103 % of control
same,T/C,[5],97 % of control
same,T/C,"dose: 125.0 mg/kg/injection, schedule: Q01DX015 (ip), vehicle: carboxymethylcellulose (CMC)",94 % of control
same,T/C,[6],101 % of control
same,T/C,"dose: 250.0 mg/kg/injection, schedule: Q01DX015 (ip), vehicle: carboxymethylcellulose (CMC)",100 % of control
same,T/C,[7],90 % of control
same,T/C,"dose: 500.0 mg/kg/injection, schedule: Q01DX015 (ip), vehicle: carboxymethylcellulose (CMC)",89 % of control
CN(C)CCCc1c2ccccc2nc2ccc(Cl)cc12,T/C,"dose: 12.0 mg/kg/injection, schedule: Q01DX009 (ip), vehicle: saline",98 % of control
same,T/C,[4],101 % of control
COC(=O)c1cccc2c1-c1ccccc1C(Br)C2Br (stereo not drawn),T/C,[1],111 % of control
same,T/C,"dose: 100.0 mg/kg/injection, schedule: Q04DX003 (ip), vehicle: saline",96 % of control
same,T/C,[2],95 % of control
same,T/C,"dose: 200.0 mg/kg/injection, schedule: Q04DX003 (ip), vehicle: saline",92 % of control
same,T/C,[3],97 % of control
same,T/C,"dose: 400.0 mg/kg/injection, schedule: Q04DX003 (ip), vehicle: saline",94 % of control
